Laboratory results published in ChEMBL document CHEMBL1122748, “Synthesis and evaluation of substituted 2-phenylcyclobutylamines as analogues of hallucinogenic phenethylamines: lack of LSD-like biological activity” (1984).

What was measured:
Format in all cases: functional
Rattus norvegicus [1] = assay: Effective dose to cause hallucinogenic activity in rats using drug discrimination assay by intraperitoneal administration; settings: ip
Rattus norvegicus [2] = assay: Compound was evaluated for mean % LSD correct responses at a dos e of 10 mg/kg in rats using drug discrimination assay
Rattus norvegicus [3] = assay: Compound was evaluated for mean % LSD correct responses at a dos e of 0.75 mg/kg in rats using drug discrimination assay
Rattus norvegicus [4] = assay: Compound was evaluated for mean % LSD correct responses at a dos e of 15 mg/kg in rats using drug discrimination assay

## COc1cc(C2CC2N)c(OC)cc1C.Cl (stereo not drawn)
Rattus norvegicus [1]
  ED50: 20 mg/kg

## COc1cc(OC)c(C2CC[C@@H]2N)cc1OC (stereo partly drawn)
Rattus norvegicus [2]
  LSD: 44%

## CCN(CC)C(=O)[C@@H]1C=C2c3cccc4[nH]cc(c34)C[C@H]2N(C)C1.O=C(O)C(O)C(O)C(=O)O
Rattus norvegicus [1]
  ED50: 0.08 mg/kg

## COc1cc(C2CC2N)c(OC)cc1C (stereo not drawn)
Rattus norvegicus [3]
  LSD: 93%
Rattus norvegicus [1]
  ED50: 0.163 mg/kg

## COc1cc(C2CC[C@@H]2N)c(OC)cc1C (stereo partly drawn)
Rattus norvegicus [2]
  LSD: 53%

## COc1cc(OC)c(C2CC[C@H]2N)cc1OC (stereo partly drawn)
Rattus norvegicus [4]
  LSD: 28%

## CCN(CC)C(=O)[C@@H]1C=C2c3cccc4[nH]cc(c34)C[C@H]2N(C)C1 [LYSERGIDE]
Rattus norvegicus [1]
  ED50: 0.0077 mg/kg
